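Values below derive from 48-hour exposures of cells grown in 96-well plates, with endpoints linearly interpolated between the two concentrations bracketing the appropriate inhibition level. GI50 marks 50% less growth.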 Active and inactive are the calls of the source. Cut-off read from the data, not from the text of the source: active = GI50 up to about 1.1 µM and inactive = higher.
What was measured:
Assay in all cases: NCI anticancer screen, dose series, 48 h
[1] = test system: OVCAR-3
[2] = test system: HL-60
[3] = test system: KM12
[4] = test system: CCRF-CEM
[5] = test system: A498
[6] = test system: COLO 205
[7] = test system: OVCAR-4
[8] = test system: NCI-H23
[9] = test system: A549
[10] = test system: SK-MEL-28
[11] = test system: LOX IMVI
[12] = test system: UACC-62
[13] = test system: IGROV-1
[14] = test system: SF-268
[15] = test system: HOP-62
[16] = test system: SN12C
[17] = test system: OVCAR-8

Measured: GI50

COC(=O)C(=O)C(C(=O)C(=O)Nc1cccc(C(C)=O)c1)c1nc2ccccc2nc1O (centres undefined)
inactive: [1] > 100 µM | [2] > 100 µM | [3] > 100 µM | [4] > 100 µM | [5] > 100 µM | [6] > 100 µM | [7] > 100 µM | [8] > 100 µM | [9] > 100 µM | [10] > 100 µM | [11] > 100 µM | [12] > 100 µM | [13] > 100 µM | [14] > 100 µM

Cc1c(C(=O)CC(=O)C(=O)Nc2cc(Cl)ccc2Cl)[n+]([O-])c2ccccc2[n+]1[O-]
inactive: [1] 19.9 µM | [3] 37.3 µM | [4] 73.8 µM | [5] > 100 µM | [6] 31.4 µM | [7] 46.1 µM | [8] 21.5 µM | [9] 40.1 µM | [10] 43.1 µM | [15] > 100 µM | [11] 27.4 µM | [16] 36.8 µM | [12] 19.5 µM | [17] 30.7 µM | [13] 36.9 µM | [14] 33.4 µM

CC(=O)NNc1nc(C)c(C(/C=C/c2ccc(Cl)cc2)=N\N=C(N)N)s1
inactive: [1] > 100 µM | [2] > 100 µM | [3] > 100 µM | [4] > 100 µM | [6] > 100 µM | [7] > 100 µM | [8] > 100 µM | [9] > 100 µM | [10] > 100 µM | [15] > 100 µM | [11] > 100 µM | [16] > 100 µM | [12] > 100 µM | [17] > 100 µM | [13] > 100 µM | [14] > 100 µM

O=C1CSc2cc([N+](=O)[O-])ccc2N1
inactive: [1] > 100 µM | [3] > 100 µM | [4] > 100 µM | [5] > 100 µM | [6] > 100 µM | [7] > 100 µM | [8] > 100 µM | [9] > 100 µM | [10] > 100 µM | [15] > 100 µM | [11] > 100 µM | [16] > 100 µM | [12] > 100 µM | [17] > 100 µM | [13] > 100 µM | [14] > 100 µM

O=S(=O)(/C=C/c1ccc(Cl)cc1Cl)Cc1ccccc1CS(=O)(=O)/C=C/c1ccc(Cl)cc1Cl
inactive: [1] > 100 µM | [3] > 100 µM | [4] 9.27 µM | [5] 33.5 µM | [6] > 100 µM | [7] 11.9 µM | [8] > 100 µM | [9] 18 µM | [10] > 100 µM | [15] > 100 µM | [11] > 100 µM | [16] > 100 µM | [12] 8.38 µM | [17] 7.5 µM | [13] > 100 µM | [14] 40.5 µM

N#CC(C(=O)CCC(=O)Nc1ccc(Cl)cc1)c1ccc(Cl)cc1 (centres undefined)
inactive: [1] > 100 µM | [2] > 100 µM | [3] 91.8 µM | [4] > 100 µM | [5] > 100 µM | [6] > 100 µM | [7] > 100 µM | [8] > 100 µM | [9] > 100 µM | [15] > 100 µM | [11] 78.5 µM | [16] > 100 µM | [12] 10.7 µM | [17] > 100 µM | [13] 89.5 µM | [14] 93.3 µM

Cc1ccc(S(=O)(=O)N/N=C/c2oc(-c3ccccc3Cl)c(-c3ccccc3Cl)c2[N+](=O)[O-])cc1
inactive: [1] > 100 µM | [2] 8.02 µM | [3] > 100 µM | [4] 7.24 µM | [5] 20.8 µM | [6] 28.1 µM | [7] 30 µM | [8] 13.4 µM | [9] 24.2 µM | [10] 22.9 µM | [15] 17.6 µM | [16] 14.8 µM | [12] 17.8 µM | [17] 22.3 µM | [13] 24.9 µM | [14] 36.1 µM

CCOC(=O)C12CCCC1(O)N(NC(=O)c1cccc(Cl)c1)C(C)=C2C(=O)OC (centres undefined)
inactive: [1] > 100 µM | [2] > 100 µM | [3] > 100 µM | [5] > 100 µM | [7] > 100 µM | [9] > 100 µM | [10] > 100 µM | [15] > 100 µM | [11] > 100 µM | [16] > 100 µM | [12] > 100 µM | [17] > 100 µM | [13] > 100 µM | [14] > 100 µM

CCN(CC)CC(=O)NC1c2ccccc2Oc2c(C)cccc21 (centres undefined)
inactive: [2] 37.7 µM | [4] > 100 µM | [6] > 100 µM | [7] > 100 µM | [8] > 100 µM | [9] > 100 µM | [10] > 100 µM | [15] > 100 µM | [11] > 100 µM | [16] > 100 µM | [12] > 100 µM | [17] > 100 µM | [13] > 100 µM | [14] > 100 µM

CC(=O)C1CCN(c2ccccc2)C1 (centres undefined)
inactive: [1] > 100 µM | [2] > 100 µM | [3] > 100 µM | [4] > 100 µM | [5] > 100 µM | [7] > 100 µM | [8] > 100 µM | [9] > 100 µM | [10] > 100 µM | [15] > 100 µM | [16] > 100 µM | [12] > 100 µM | [17] > 100 µM | [13] > 100 µM | [14] > 100 µM

N#CC12Cc3ccc4c(c3-c3cccc(c31)CCN2C(=O)c1ccccc1)OCO4 (centres undefined)
inactive: [1] > 100 µM | [2] > 100 µM | [3] > 100 µM | [4] > 100 µM | [5] 68.4 µM | [6] > 100 µM | [8] > 100 µM | [9] > 100 µM | [10] > 100 µM | [15] > 100 µM | [11] > 100 µM | [16] > 100 µM | [12] > 100 µM | [17] > 100 µM | [13] > 100 µM | [14] > 100 µM

O=CC1=CCC2c3[nH]c4ccccc4c3CCN2C1 (centres undefined)
inactive: [1] 92.5 µM | [2] 77.6 µM | [3] 73.1 µM | [4] 107 µM | [6] 232 µM | [8] 83 µM | [9] > 396 µM | [10] 90.6 µM | [15] > 39.6 µM | [11] 58.7 µM | [16] 102 µM | [12] 93.8 µM | [17] 139 µM | [13] 125 µM | [14] 167 µM

O=C1C2C(C(=O)N1c1ccccc1)C1(c3ccccc3)OC2(c2ccccc2)c2ccccc21 (centres undefined)
inactive: [1] > 100 µM | [2] > 100 µM | [3] > 100 µM | [4] > 100 µM | [6] > 100 µM | [7] > 100 µM | [8] > 100 µM | [9] > 100 µM | [10] > 100 µM | [15] > 100 µM | [11] > 100 µM | [16] > 100 µM | [12] > 100 µM | [17] > 100 µM | [13] > 100 µM | [14] > 100 µM

COc1cc2cc3c4c(cc(OC)c(OC)c4c2cc1OC)CCN3
inactive: [1] 27.2 µM | [2] 18.2 µM | [3] 31.6 µM | [4] 26.5 µM | [6] 22.6 µM | [7] 33.7 µM | [8] 92 µM | [9] > 100 µM | [10] 69.8 µM | [15] > 100 µM | [11] 28.6 µM | [16] 46.7 µM | [12] 5.61 µM | [17] 76.4 µM | [13] > 100 µM | [14] 34 µM

CN(C)C(=S)OC(Cn1cncn1)c1ccc(Cl)cc1Cl (centres undefined)
inactive: [1] > 100 µM | [2] > 100 µM | [3] > 100 µM | [5] > 100 µM | [6] > 100 µM | [7] > 100 µM | [8] > 100 µM | [9] > 100 µM | [10] > 100 µM | [15] > 100 µM | [11] > 100 µM | [16] > 100 µM | [12] > 100 µM | [17] > 100 µM | [13] > 100 µM | [14] > 100 µM

CC#CC(=O)Nc1ccccc1CC(c1c[nH]c2ccccc12)c1c[nH]c2ccccc12
inactive: [1] 18.9 µM | [2] 10.8 µM | [3] 22.3 µM | [4] 11.3 µM | [6] 15.5 µM | [8] 18.8 µM | [9] 20.5 µM | [10] 15.7 µM | [15] 20 µM | [11] 15.2 µM | [16] 15.1 µM | [12] 13.3 µM | [17] 19.1 µM | [13] 16.4 µM | [14] 22.7 µM

O=C(O)C[C@@H](Cl)[C@H](NC(=O)OCc1ccccc1)C(=O)O
inactive: [1] > 100 µM | [2] > 100 µM | [3] > 100 µM | [4] > 100 µM | [5] > 100 µM | [6] > 100 µM | [7] > 100 µM | [8] > 100 µM | [9] > 100 µM | [10] > 100 µM | [15] > 100 µM | [11] > 100 µM | [16] > 100 µM | [12] > 100 µM | [17] > 100 µM | [13] > 100 µM | [14] > 100 µM

Source: ChEMBL document CHEMBL1201862, “PubChem BioAssay data set” (2004)
